Assay results: US6417384B1, “Radioiodinated phospholipid ether analogs and methods of using the same” (The Regents of the University of Michigan, priority 1999, dated 2002)
Values belong to the compound of their own block, whether it stands above or below them.

How the values were obtained:
[1] = tested on: rats bearing Walker-256 tumor; test: Biodistribution studies with Walker-256 carcinosarcoma; assay type: in vivo, rat
Method: The three radiolabelled compounds illustrated in FIG. 5, including the improved C-18 analog 18-(p-iodophenyl)octadecyl phosphocholine (Compound XVI) described in Example 2, were prepared and administered to two sets of female Sprague Dawley rats (Charles River, Portage, Mich.). One normal set was used as a control, and one set was inoculated with Walker-256 carcinosarcoma cells (5×10^6 cells) in 0.2 ml saline in the right hindlimb. The Walker carcinoma cell line was provided by Dr. James Varani of the Department of Pathology at the University of Michigan, and is an accepted cell line representative of effect in humans. See, e.g. Tayck et al., “Influence of the Walker 256 Carcinosarcoma on Muscle, Tumor, and Whole-Body Protein Synthesis and Growth Rate in the Cancer-Bearing Rat, Cancer Res. 46:5649-54 (1986).
The animals were used 6-8 days later when the tumor weight averaged 10 g. The radiolabelled compounds were dissolved in absolute ethanol (50-500 μl) and Tween-20 (0.1 ml/mg of compound) was added to the solution. Ethanol was removed by evaporation under a stream of nitrogen. Physiological saline or sterile water was added, to give a 2-3% Tween-20 solution which was subsequently mixed by vortex. The solubilized radiolabelled compounds (5-10 μCi, 0.3 ml) were administered intravenously via the tail vein to tumor bearing rats, and the animals were sacrificed by exsanguination while under ether anesthesia at the various time points. Blood samples were collected through cardiac puncture and selected tissues (liver, kidney, etc.) were removed, trimmed, blotted to remove excess blood and weighed. Large organs were thoroughly minced with scissors to obtain random representative tissue samples.
For the biodistribution experiments with 12-(p-iodophenyl)dodecyl phosphocholine, weighed tissue samples were counted with a well scintillation counter (85% counting efficiency). The concentration of radioactivity in each tissue was expressed as a percentage of administered dose per gram of tissue.
Tissue distribution was assessed at various times following administration of the radioiodinated chain length isomers. The results are expressed as the mean % administered dose per gram±SEM (% Dose/g±SEM).

[2] = tested on: rats bearing Dunning (MATLyLu) prostate tumors; test: Biodistribution studies with Dunning prostate tumor; assay type: in vivo, rat; settings: for mean % administered dose per gram, Adrenal / mean % administered dose per gram, Blood / mean % administered dose per gram, Kidney / mean % administered dose per gram, Liver / mean % administered dose per gram, Lung / mean % administered dose per gram, Plasma / mean % administered dose per gram, Tumor: i.v., Dunning MAT-LyLu prostate tumor-bearing rats, mean ± SEM
Method: The three radiolabelled compounds illustrated in FIGS. 7A-7C, including the improved C-18 analogs 18-(p-iodophenyl)octadecyl phosphocholine (Compound XVI—FIG. 7B) and 1-O-[18-(p-iodophenyl)octadecyl]-1,3-propanediol-3-phosphocholine (Compound XIV—FIG. 7C) described in Examples 2 and 3, respectively, were prepared and administered to two sets of male Copenhagen rats (Harlan Sprague-Dawley, Indianapolis, Ind.). One group of normal animals was used as a control, and another group was inoculated with Dunning prostate tumor cells (1×10^6 MAT-LyLu cells) in 0.2 ml saline in the right hindlimb. The MAT-LyLu subline of the Dunning (R-3327) adenocarcinoma prostate tumor was provided by Dr. Ken Pienta of the Department of Urology at the University of Michigan, and is an accepted cell line representative of effect in humans. See, e.g., Pienta et al., “Inhibition of Spontaneous Metastasis in a Rat Prostrate Cancer Model by Oral Administration of Modified Citrus Pectin, J. Natl. Cancer Inst. 87:348-53 (1995).
The animals were maintained with free access to food and water until day 8-10. The radioiodinated phospholipid ether analog formulated in 2% Tween 20—sterile water (5-10 μCi, 0.3-0.4 ml, described above in Example 6) was administered intravenously into the tail vein of the tumor-bearing animals under metofane anesthesia. The animals were euthanized at selected time points after injection (n=3 per time point) and samples of blood, plasma and a variety of tissues including tumor and prostate are collected and analyzed for radioiodine content. Biodistribution values are calculated as the mean of the individual % administered dose per gram of tissue and % dose per organ values.

[3] = female, Sprague Dawley, rat, in vivo, iv, 24 h
[4] = female, Sprague Dawley, rat, in vivo, iv, 48 h

Compound: C[N+](C)(C)CCOP(=O)([O-])OCCCCCCCCCCCCCCCc1ccc(I)cc1 [C-15 Analog, 15-(p-iodophenyl)pentadecyl phosphocholine]
mean % administered dose per gram, Adrenal ([1]; Adrenal, 24 hr, i.v., Walker-256 tumor-bearing rats, mean ± SEM): 0.73 ± 0.08 % Dose/g
mean % administered dose per gram, Adrenal ([1]; Adrenal, 48 hr, i.v., Walker-256 tumor-bearing rats, mean ± SEM): 0.49 ± 0.05 % Dose/g
mean % administered dose per gram, Blood ([1]; Blood, 24 hr, i.v., Walker-256 tumor-bearing rats, mean ± SEM): 0.16 ± 0.01 % Dose/g
mean % administered dose per gram, Blood ([1]; Blood, 48 hr, i.v., Walker-256 tumor-bearing rats, mean ± SEM): 0.14 ± 0.01 % Dose/g
blood levels ([1]; Blood, 120 hours, i.v., Walker-256 tumor-bearing rats, mean ± SEM): 0.07±0.01 % Dose/g
mean % administered dose per gram, Duodenum ([1]; Duodenum, 24 hr, i.v., Walker-256 tumor-bearing rats, mean ± SEM): 1.13 ± 0.13 % Dose/g
mean % administered dose per gram, Duodenum ([1]; Duodenum, 48 hr, i.v., Walker-256 tumor-bearing rats, mean ± SEM): 1.38 ± 0.24 % Dose/g
mean % administered dose per gram, Kidney ([1]; Kidney, 24 hr, i.v., Walker-256 tumor-bearing rats, mean ± SEM): 1.14 ± 0.11 % Dose/g
mean % administered dose per gram, Kidney ([1]; Kidney, 48 hr, i.v., Walker-256 tumor-bearing rats, mean ± SEM): 0.91 ± 0.04 % Dose/g
mean % administered dose per gram, Liver ([1]; Liver, 24 hr, i.v., Walker-256 tumor-bearing rats, mean ± SEM): 1.29 ± 0.10 % Dose/g
mean % administered dose per gram, Liver ([1]; Liver, 48 hr, i.v., Walker-256 tumor-bearing rats, mean ± SEM): 0.83 ± 0.04 % Dose/g
mean % administered dose per gram, Lung ([1]; Lung, 24 hr, i.v., Walker-256 tumor-bearing rats, mean ± SEM): 0.97 ± 0.03 % Dose/g
mean % administered dose per gram, Lung ([1]; Lung, 48 hr, i.v., Walker-256 tumor-bearing rats, mean ± SEM): 0.81 ± 0.04 % Dose/g
mean % administered dose per gram, Plasma ([1]; Plasma, 24 hr, i.v., Walker-256 tumor-bearing rats, mean ± SEM): 0.16 ± 0.01 % Dose/g
mean % administered dose per gram, Plasma ([1]; Plasma, 48 hr, i.v., Walker-256 tumor-bearing rats, mean ± SEM): 0.15 ± 0.03 % Dose/g
mean % administered dose per gram, Tumor ([1]; Tumor, 24 hr, i.v., Walker-256 tumor-bearing rats, mean ± SEM): 1.47 ± 0.10 % Dose/g
mean % administered dose per gram, Tumor ([1]; Tumor, 48 hr, i.v., Walker-256 tumor-bearing rats, mean ± SEM): 1.65 ± 0.23 % Dose/g

mean % administered dose per gram, Adrenal ([2]; 24 hr): 1.37 ± 0.03 % Dose/g
mean % administered dose per gram, Adrenal ([2]; 48 hr): 1.04 ± 0.07 % Dose/g
mean % administered dose per gram, Blood ([2]; 24 hr): 0.41 ± 0.01 % Dose/g
mean % administered dose per gram, Blood ([2]; 48 hr): 0.29 ± 0.01 % Dose/g
mean % administered dose per gram, Kidney ([2]; 24 hr): 0.73 ± 0.02 % Dose/g
mean % administered dose per gram, Kidney ([2]; 48 hr): 0.65 ± 0.01 % Dose/g
mean % administered dose per gram, Liver ([2]; 24 hr): 0.57 ± 0.02 % Dose/g
mean % administered dose per gram, Liver ([2]; 48 hr): 0.36 ± 0.01 % Dose/g
mean % administered dose per gram, Lung ([2]; 24 hr): 0.89 ± 0.07 % Dose/g
mean % administered dose per gram, Lung ([2]; 48 hr): 0.78 ± 0.02 % Dose/g
mean % administered dose per gram, Plasma ([2]; 24 hr): 0.58 ± 0.01 % Dose/g
mean % administered dose per gram, Plasma ([2]; 48 hr): 0.42 ± 0.03 % Dose/g
mean % administered dose per gram, Tumor ([2]; 24 hr): 0.43 ± 0.05 % Dose/g
mean % administered dose per gram, Tumor ([2]; 48 hr): 0.39 ± 0.01 % Dose/g
Compound: C[N+](C)(C)CCOP(=O)([O-])OCCCOCCCCCCCCCCCCCCCCCCc1ccc(I)cc1 [Compound XIV, 1-O-[18-(p-Iodophenyl)octadecyl]-1,3-propanediol-3-phosphocholine]

mean % administered dose per gram, Adrenal ([2]; 24 hr): 0.88 ± 0.02 % Dose/g
mean % administered dose per gram, Adrenal ([2]; 48 hr): 0.76 ± 0.03 % Dose/g
mean % administered dose per gram, Blood ([2]; 24 hr): 0.88 ± 0.04 % Dose/g
mean % administered dose per gram, Blood ([2]; 48 hr): 0.64 ± 0.05 % Dose/g
mean % administered dose per gram, Kidney ([2]; 24 hr): 0.59 ± 0.02 % Dose/g
mean % administered dose per gram, Kidney ([2]; 48 hr): 0.51 ± 0.03 % Dose/g
mean % administered dose per gram, Liver ([2]; 24 hr): 0.57 ± 0.02 % Dose/g
mean % administered dose per gram, Liver ([2]; 48 hr): 0.40 ± 0.03 % Dose/g
mean % administered dose per gram, Lung ([2]; 24 hr): 0.84 ± 0.01 % Dose/g
mean % administered dose per gram, Lung ([2]; 48 hr): 0.69 ± 0.05 % Dose/g
mean % administered dose per gram, Plasma ([2]; 24 hr): 1.43 ± 0.06 % Dose/g
mean % administered dose per gram, Plasma ([2]; 48 hr): 0.99 ± 0.11 % Dose/g
mean % administered dose per gram, Tumor ([2]; 24 hr): 0.75 ± 0.04 % Dose/g
mean % administered dose per gram, Tumor ([2]; 48 hr): 0.81 ± 0.04 % Dose/g
tumor levels relative to the shorter chain analog ([2]; versus C-12 analog, Dunning prostate tumor model): more than twice as high
Compound: C[N+](C)(C)CCOP(=O)([O-])OCCCCCCCCCCCCCCCCCCc1ccc(I)cc1 [Compound XVI, 18-(p-iodophenyl)octadecyl phosphocholine]
mean % administered dose per gram, Adrenal [1, 3]: 0.85 ± 0.04 % Dose/g
mean % administered dose per gram, Blood [1, 3]: 0.96 ± 0.00 % Dose/g
mean % administered dose per gram, Duodenum [1, 3]: 0.69 ± 0.05 % Dose/g
mean % administered dose per gram, Kidney [1, 3]: 0.65 ± 0.00 % Dose/g
mean % administered dose per gram, Liver [1, 3]: 0.55 ± 0.04 % Dose/g
mean % administered dose per gram, Lung [1, 3]: 0.88 ± 0.06 % Dose/g
mean % administered dose per gram, Plasma [1, 3]: 1.47 ± 0.03 % Dose/g
mean % administered dose per gram, Tumor [1, 3]: 0.98 ± 0.07 % Dose/g
mean % administered dose per gram, Adrenal [1, 4]: 0.92 ± 0.06 % Dose/g
mean % administered dose per gram, Blood [1, 4]: 0.64 ± 0.07 % Dose/g
mean % administered dose per gram, Duodenum [1, 4]: 0.68 ± 0.04 % Dose/g
mean % administered dose per gram, Kidney [1, 4]: 0.59 ± 0.04 % Dose/g
mean % administered dose per gram, Liver [1, 4]: 0.59 ± 0.05 % Dose/g
mean % administered dose per gram, Lung [1, 4]: 0.76 ± 0.07 % Dose/g
mean % administered dose per gram, Plasma [1, 4]: 0.95 ± 0.11 % Dose/g
mean % administered dose per gram, Tumor [1, 4]: 1.14 ± 0.01 % Dose/g
blood levels ([1]; female, Sprague Dawley, rat, in vivo, iv, 120 h): 0.60±0.01 % Dose/g
clearance from non-target tissues ([1]; rat, in vivo): much more rapid than from tumor
level in the tumor over a longer time period ([1]; rat, in vivo): increased significantly
retention in the circulation ([1]; rat, in vivo): retained in the circulation to a much greater extent than the other chain length isomers surveyed
